Test results reported in patent US12186374B2 (Sanofi-Aventis Deutschland GmbH, priority 2014, dated 2025).

Legend:
[1] = tested on: patients with Type 2 diabetes mellitus (T2DM); assay: Standardized meal test: 2-hour glucose excursion and 2-hour PPG (Example 2); assay type: in vivo, human
Procedure: Patients will undergo a standardized meal challenge to assess fasting and postprandial glucose (central laboratory), as well as plasma glucose excursion.
The standardized meal contains approximately 600 kcal and is composed of 50 to 55% carbohydrate, 15 to 20% protein and 25 to 30% fat.
On the day of the standardized meal test, the patients will come to the investigational site in the morning, in fasting conditions for at least 8 hours and must not eat any food or drink, except water, before the scheduled standardized meal test. […] Patient in insulin glargine group will inject their insulin glargine at their usual injection time.
The standardized meal for all patients should be consumed within a 15-minute period. Blood for plasma glucose is drawn 5 times: • 30 minutes prior to the start of the meal and before IMP administration if the IMP is injected before breakfast; • Just before the start of the standardized meal (0 minute), • 30 minutes after the start of the standardized meal, • 60 minutes after the start of the standardized meal, • 120 minutes after the start of the standardized meal.
Similar MMRM method or ANCOVA was applied on continuous secondary efficacy endpoints and Cochran-Mantei-Haenszel method stratified by randomization strata was applied on categorical efficacy endpoints.

[2] = tested on: patients with Type 2 diabetes mellitus (T2DM); assay: Increased calcitonin reported on AE form (Example 2); parameters: Patients with TEAE of increased calcitonin: dose or concentration left out as unconfirmed
[3] = Example 2, baseline, standardized meal test
[4] = standardized meal test, mITT population
[5] = on-treatment period, Safety population

With “Gly(A21)-Arg(B31)-Arg(B32)-human insulin [Insulin Glargine]” the “2-hour plasma glucose excursion, change from baseline to Week 30 (LOCF), LS Mean (SE)” value ([1]; ANCOVA, mITT population) was −0.18 (0.157) mmol/L, the “2-hour PPG change from baseline to Week 30 (LOCF) Mean (SD)” value ([1]; Example 2) was −3.26 (3.54) mmol/L and the “2-hour PPG change from baseline to Week 30 (LOCF) Median” value ([1]; Example 2) was -3.35 mmol/L. For the same substance, the “2-hour PPG change from baseline to Week 30 (LOCF) LS Mean (SE)” value ([1]; Example 2, ANCOVA) was −3.31 (0.178) mmol/L, the “2-hour PPG change from baseline to Week 30 (LOCF) LS Mean (SE)” value ([1]; Example 2, ANCOVA, listed as insulin glargine) was -3.31 mmol/L and the “2-hour postprandial plasma glucose Week 30 (LOCF) Mean (SD)” value ([1]; Example 2, Week 30 (LOCF)) was 11.35 (3.12) mmol/L. For the same substance, the “2-hour postprandial plasma glucose Week 30 (LOCF) Median” value ([1]; Example 2, Week 30 (LOCF)) was 11.20 mmol/L, the “2-hour glucose excursion, LS mean change” value ([1]; Example 2, baseline to Week 30, standardized liquid breakfast meal) was -0.18 mmol/L and the “2-hour postprandial plasma glucose Baseline Mean (SD)” value [1, 3] was 14.61 (3.64) mmol/L. For the same substance, the “2-hour postprandial plasma glucose Baseline Median” value [1, 3] was 14.50 mmol/L, the “2-hour plasma glucose excursion, Week 30 (LOCF), Mean (SD)” value [1, 4] was 4.80 (2.90) mmol/L and the “2-hour plasma glucose excursion, Week 30 (LOCF), Median” value [1, 4] was 4.70 mmol/L. The “2-hour plasma glucose excursion, change from baseline to Week 30 (LOCF), Mean (SD)” value [1, 4] was −0.22 (2.86) mmol/L, the “2-hour plasma glucose excursion, change from baseline to Week 30 (LOCF), Median” value [1, 4] was -0.10 mmol/L and the “Patients with TEAE of increased calcitonin” value ([2]; Example 2) was “One”. For the same substance, the “Events reported on the AE form for increased calcitonin (≥20 ng/L): Blood calcitonin increased” value [2, 5] was 1 (0.2%) n (%) and the “Patients with events reported on the AE form for increased calcitonin (≥20 ng/L): Any” value [2, 5] was 1 (0.2%) n (%).
